Structures are written as SMILES.

T1 sequence (Q9UM73 1098-1410): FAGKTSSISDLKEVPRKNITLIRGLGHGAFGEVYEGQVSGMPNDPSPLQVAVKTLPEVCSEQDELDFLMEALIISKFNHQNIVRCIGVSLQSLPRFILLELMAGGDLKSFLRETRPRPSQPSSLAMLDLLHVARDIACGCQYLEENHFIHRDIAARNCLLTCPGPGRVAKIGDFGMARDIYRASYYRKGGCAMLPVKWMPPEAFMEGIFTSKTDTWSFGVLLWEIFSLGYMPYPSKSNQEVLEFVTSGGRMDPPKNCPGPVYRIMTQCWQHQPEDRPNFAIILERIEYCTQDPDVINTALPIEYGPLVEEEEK

The assay concerns the target T1, ALK (baculovirus expressed human ALK kinase domain F1098-K1410) (Homo sapiens, UniProt Q9UM73).
T1 construct: baculovirus expressed human ALK kinase domain F1098-K1410; made in house
Nature of the assay: Luciferase-Coupled Chemiluminescent Kinase assay (LCCA), ALK biochemical activity. The note with it: inhibition of ALK; mean values; 1 μM ATP, 4 μM poly-AEKY, 12 nM ALK, 2 hours ambient temperature. An outline of the steps: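 Luciferase-coupled readout of ATP remaining after reaction of 12 nM ALK kinase domain with 1 μM ATP and 4 μM poly-AEKY, Tris-HCl pH 7.5 buffer with MgCl2 and MnCl2. Incubated 2 h at ambient temperature; inhibition derived from ATP consumption across serial compound dilutions.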
A word on the IC50: it is the concentration needed to halve the response being measured. Low values mean greater potency in that assay, high ones weaker potency in that assay. For the compound `Cc1n[nH]c2nc(-c3ccc4[nH]ccc4c3)c3c(F)cc(O)c(F)c3c12` [Example 191, 6,9-difluoro-5-(1H-indol-5-yl)-1-methyl-3H-pyrazolo[3,4-c]isoquinolin-8-ol], the IC50 fell in the range of 100 to 999 nM.

The compound `Cc1n[nH]c2nc(-c3ccc(N)cc3)c3c(F)cc(O)c(F)c3c12` [Example 193, 5-(4-aminophenyl)-6,9-difluoro-1-methyl-3H-pyrazolo[3,4-c]isoquinolin-8-ol] gave a half-maximal inhibitory concentration (IC50) of 1000 to 2000 nM.

Take `COc1c(OCCN2CCN(C)CC2)cc2c(c(-c3ccc(O)c(Cl)c3)nc3[nH]nc(C)c32)c1F` [Example 194, 2-chloro-4-(6-fluoro-1-methyl-7-(methyloxy)-8-{[2-(4-methylpiperazin-1-yl)ethyl]oxy}-3H-pyrazolo[3,4-c]isoquinolin-5-yl)phenol]: the IC50 was at most 99 nM.

`Cc1n[nH]c2nc(-c3cnc(N)s3)c3c(F)cc(O)c(F)c3c12` [Example 195, 5-(2-amino-1,3-thiazol-5-yl)-6,9-difluoro-1-methyl-3H-pyrazolo[3,4-c]isoquinolin-8-ol] registered an IC50 of at most 99 nM.

In turn, `CCN1CCN(CCOc2cc(F)c3c(-c4ccc(O)c(Cl)c4)nc4[nH]nc(C)c4c3c2OC)CC1` [Example 196, 2-chloro-4-[8-{[2-(4-ethylpiperazin-1-yl)ethyl]oxy}-6-fluoro-1-methyl-9-(methyloxy)-3H-pyrazolo[3,4-c]isoquinolin-5-yl]phenol] returned an IC50 of at most 99 nM.

Turning to `COc1c(OCCN2CCN(C)CC2)cc(F)c2c(-c3ccc(O)c(Cl)c3)nc3[nH]nc(C)c3c12` [Example 197, 2-chloro-4-(6-fluoro-1-methyl-9-(methyloxy)-8-{[2-(4-methylpiperazin-1-yl)ethyl]oxy}-3H-pyrazolo[3,4-c]isoquinolin-5-yl)phenol], the IC50 was at most 99 nM.

In turn, `Cc1n[nH]c2nc(-c3ccc(N)nc3)c3c(F)cc(O)c(F)c3c12` [Example 198, 5-(6-aminopyridin-3-yl)-6,9-difluoro-1-methyl-3H-pyrazolo[3,4-c]isoquinolin-8-ol] yielded an IC50 above 2000 nM.

For `Cc1n[nH]c2nc(-c3ccc(N)s3)c3c(F)cc(O)c(F)c3c12` [Example 199, 5-(5-amino-2-thienyl)-6,9-difluoro-1-methyl-3H-pyrazolo[3,4-c]isoquinolin-8-ol], the IC50 was 100 to 999 nM.

In turn, `CCN1CCN(CCCOc2cc(F)c3c(-c4ccc(O)c(Cl)c4)nc4[nH]nc(C)c4c3c2OC)CC1` [Example 200, 2-chloro-4-[8-{[3-(4-ethylpiperazin-1-yl)propyl]oxy}-6-fluoro-1-methyl-9-(methyloxy)-3H-pyrazolo[3,4-c]isoquinolin-5-yl]phenol] showed an IC50 of at most 99 nM.

For `COc1c(OCCCN2CCN(C)CC2)cc(F)c2c(-c3ccc(O)c(Cl)c3)nc3[nH]nc(C)c3c12` [Example 201, 2-chloro-4-(6-fluoro-1-methyl-9-(methyloxy)-8-{[3-(4-methylpiperazin-1-yl)propyl]oxy}-3H-pyrazolo[3,4-c]isoquinolin-5-yl)phenol], the IC50 was at most 99 nM.

The compound `Cc1n[nH]c2nc(-c3ccc4cc[nH]c4c3)c3c(F)cc(O)c(F)c3c12` [Example 202, 6,9-difluoro-5-(1H-indol-6-yl)-1-methyl-3H-pyrazolo[3,4-c]isoquinolin-8-ol] showed an IC50 above 2000 nM.

As for `CC(=O)Nc1ncc(-c2nc3[nH]nc(C)c3c3c(F)c(O)cc(F)c23)s1` [Example 203, N-[5-(6,9-difluoro-8-hydroxy-1-methyl-3H-pyrazolo[3,4-c]isoquinolin-5-yl)-1,3-thiazol-2-yl]acetamide], the half-maximal inhibitory concentration (IC50) is 1000 to 2000 nM.

Take `COc1c(OCCN2CCOCC2)cc(F)c2c(-c3ccc(O)c(Cl)c3)nc3[nH]nc(C)c3c12` [Example 206, 2-chloro-4-{6-fluoro-1-methyl-9-(methyloxy)-8-[(2-morpholin-4-ylethyl)oxy]-3H-pyrazolo[3,4-c]isoquinolin-5-yl}phenol]: the IC50 was at most 99 nM.

In turn, `CCCCN(CC)CCOc1cc(F)c2c(-c3ccc(O)c(Cl)c3)nc3[nH]nc(C)c3c2c1OC` [Example 207, 4-[8-({2-[butyl(ethyl)amino]ethyl}oxy)-6-fluoro-1-methyl-9-(methyloxy)-3H-pyrazolo[3,4-c]isoquinolin-5-yl]-2-chlorophenol] came in with an IC50 of at most 99 nM.

`COc1c(OC[C@H](N)C(C)C)cc(F)c2c(-c3ccc(O)c(Cl)c3)nc3[nH]nc(C)c3c12` [Example 208, 4-[8-{[(2R)-2-amino-3-methylbutyl]oxy}-6-fluoro-1-methyl-9-(methyloxy)-3H-pyrazolo[3,4-c]isoquinolin-5-yl]-2-chlorophenol] showed an IC50 of at most 99 nM.

With `COc1c(OCCC2CCN(C)CC2)cc(F)c2c(-c3ccc(O)c(Cl)c3)nc3[nH]nc(C)c3c12` [Example 209, 2-chloro-4-(6-fluoro-1-methyl-9-(methyloxy)-8-{[2-(1-methylpiperidin-4-yl)ethyl]oxy}-3H-pyrazolo[3,4-c]isoquinolin-5-yl)phenol], the IC50 is at most 99 nM.

`CCN1CCC(COc2cc(F)c3c(-c4ccc(O)c(Cl)c4)nc4[nH]nc(C)c4c3c2OC)CC1` [Example 210, 2-chloro-4-[8-{[(1-ethylpiperidin-4-yl)methyl]oxy}-6-fluoro-1-methyl-9-(methyloxy)-3H-pyrazolo[3,4-c]isoquinolin-5-yl]phenol]: the IC50 was at most 99 nM.

For the compound `Cc1n[nH]c2nc(-c3nnc(N)s3)c3c(F)cc(O)c(F)c3c12` [Example 212, 5-(5-amino-1,3,4-thiadiazol-2-yl)-6,9-difluoro-1-methyl-3H-pyrazolo[3,4-c]isoquinolin-8-ol], the IC50 lay within 100 to 999 nM.

The compound `COc1c(OC[C@H](N)C(C)(C)C)cc(F)c2c(-c3ccc(O)c(Cl)c3)nc3[nH]nc(C)c3c12` [Example 213, 4-[8-{[(2R)-2-amino-3,3-dimethylbutyl]oxy}-6-fluoro-1-methyl-9-(methyloxy)-3H-pyrazolo[3,4-c]isoquinolin-5-yl]-2-chlorophenol] showed an IC50 of at most 99 nM.

`COc1c(OCCN2CCN(CC(C)C)CC2)cc(F)c2c(-c3ccc(O)c(Cl)c3)nc3[nH]nc(C)c3c12` [Example 214, 2-chloro-4-[6-fluoro-1-methyl-9-(methyloxy)-8-({2-[4-(2-methylpropyl)piperazin-1-yl]ethyl}oxy)-3H-pyrazolo[3,4-c]isoquinolin-5-yl]phenol] had an IC50 of at most 99 nM.

`CCN1CC2CC1CN2CCOc1cc(F)c2c(-c3ccc(O)c(Cl)c3)nc3[nH]nc(C)c3c2c1OC` (centres unmarked) [Example 215, 2-chloro-4-[8-{[2-(5-ethyl-2,5-diazabicyclo[2.2.1]hept-2-yl)ethyl]oxy}-6-fluoro-1-methyl-9-(methyloxy)-3H-pyrazolo[3,4-c]isoquinolin-5-yl]phenol] returned an IC50 of at most 99 nM.

`COc1c(OCCN2CCN(C(C)C)CC2)cc(F)c2c(-c3ccc(O)c(Cl)c3)nc3[nH]nc(C)c3c12` [Example 216, 2-chloro-4-[6-fluoro-1-methyl-8-({2-[4-(1-methylethyl)piperazin-1-yl]ethyl}oxy)-9-(methyloxy)-3H-pyrazolo[3,4-c]isoquinolin-5-yl]phenol]: the IC50 is at most 99 nM.

In turn, `COc1c(OCCN2C3CCC2CC(N)C3)cc(F)c2c(-c3ccc(O)c(Cl)c3)nc3[nH]nc(C)c3c12` (centres unmarked) [Example 217, 4-[8-{[2-(3-amino-8-azabicyclo[3.2.1]oct-8-yl)ethyl]oxy}-6-fluoro-1-methyl-9-(methyloxy)-3H-pyrazolo[3,4-c]isoquinolin-5-yl]-2-chlorophenol] returned an IC50 of at most 99 nM.

These data come from US7872014B2, “Anaplastic lymphoma kinase modulators and methods of use” (Exelixis, Inc., priority 2003, dated 2011).
